Measurements reported in patent publication US12516058B2, “Small-molecule compounds for controlling endosomal toll-like receptors and therapeutic agent for autoimmune diseases using same” (priority 2020, dated 2026).
“Also recorded” adds a separate entry of the source.

Assays:
TLR8 = biological target: T1, TLR8 (Mus musculus, UniProt P58682); test: TNF-α secretion ELISA after TLR8 agonist TL8-506 in RAW 264.7 cells; assay type: cell-based; conditions: SK41, SK50, SK58, SK64
T1 construct: endogenous in cells; host or cells: RAW 264.7
T1 sequence (P58682 24-1032): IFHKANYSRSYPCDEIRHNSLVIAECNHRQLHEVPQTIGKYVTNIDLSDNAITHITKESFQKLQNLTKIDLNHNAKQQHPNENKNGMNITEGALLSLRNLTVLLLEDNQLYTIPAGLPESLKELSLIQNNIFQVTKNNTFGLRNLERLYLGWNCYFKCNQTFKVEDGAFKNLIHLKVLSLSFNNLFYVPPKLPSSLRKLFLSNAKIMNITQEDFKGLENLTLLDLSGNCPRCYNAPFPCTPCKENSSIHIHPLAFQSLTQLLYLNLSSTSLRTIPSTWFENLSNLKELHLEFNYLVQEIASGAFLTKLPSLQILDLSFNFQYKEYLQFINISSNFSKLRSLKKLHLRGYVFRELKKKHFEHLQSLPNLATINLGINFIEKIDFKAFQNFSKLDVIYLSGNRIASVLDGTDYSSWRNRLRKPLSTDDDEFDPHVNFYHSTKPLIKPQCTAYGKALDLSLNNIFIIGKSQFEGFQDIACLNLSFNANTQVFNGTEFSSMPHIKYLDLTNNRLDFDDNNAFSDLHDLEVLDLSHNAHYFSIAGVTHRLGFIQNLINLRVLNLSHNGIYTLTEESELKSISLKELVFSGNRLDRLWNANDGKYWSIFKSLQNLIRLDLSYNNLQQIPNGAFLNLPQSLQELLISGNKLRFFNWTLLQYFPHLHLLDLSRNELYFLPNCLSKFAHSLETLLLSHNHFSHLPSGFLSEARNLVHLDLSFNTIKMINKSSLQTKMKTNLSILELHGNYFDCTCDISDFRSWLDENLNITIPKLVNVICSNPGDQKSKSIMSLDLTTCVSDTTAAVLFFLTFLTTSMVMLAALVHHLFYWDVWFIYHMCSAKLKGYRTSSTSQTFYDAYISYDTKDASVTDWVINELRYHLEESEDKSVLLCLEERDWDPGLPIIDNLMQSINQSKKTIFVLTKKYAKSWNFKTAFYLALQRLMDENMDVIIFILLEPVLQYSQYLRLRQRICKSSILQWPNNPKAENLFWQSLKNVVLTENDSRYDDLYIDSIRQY
Procedure: (§1) In order to determine the inhibitory activities of the test-ligand, RAW 264.7 cells were pretreated with each candidate compound for 1 hour, then treated with Pam3CSK4 (synthetic triacyl lipopeptide; TLR1/2, Invitrogen), FSL-1 (synthetic diacyl lipoprotein, TLR2/6, 100 ng/ml), lipopolysaccharide (LPS, TLR4, Sigma Aldrich), imiquimod (IMQ, TLR7, Invitrogen), and ODN2395 (type C CpG repeat motif DNA oligo(5′-[…]-3), TLR9, Bioneer) ligand for 4 hours, and treated with poly I:C (I:C repeat motif double-stranded RNA, TLR3, Invitrogen) and TL8-506 (TLR8, Invitrogen) showing delayed reactivity for 24 hours. After activation of TLR, the supernatant was diluted in an appropriate ratio so as to measure within the standard dose range, transferred to a pre-coated 96-well assay plate, and then treated with mouse TNF-alpha secretion level in accordance with the manufacturer's instructions using a mouse-TNF-alpha ELISA-kit (Invitrogen).
(§2) In order to determine the inhibitory activities of SK41, SK50, SK58 and SK64 on various TLR signaling pathways, RAW 264.7 cells were cultured along with each compound and then stimulated with different TLR agonists. The TLR agonists used herein were Pam3CSK4 (TLR1/2), FSL-1 (TLR2/6), LPS (TLR4) and FLA-ST (TLR5) as cell surface TLRs, and poly I:C (TLR3) and TL8-506 (TLR8) as endosomal TLRs.

TLR4 = biological target: T2, TLR4 (Mus musculus, UniProt Q9QUK6); test: TNF-α secretion ELISA after LPS in RAW 264.7 cells; assay type: cell-based
T2 construct: endogenous in cells; host or cells: RAW 264.7
T2 sequence (Q9QUK6 26-835): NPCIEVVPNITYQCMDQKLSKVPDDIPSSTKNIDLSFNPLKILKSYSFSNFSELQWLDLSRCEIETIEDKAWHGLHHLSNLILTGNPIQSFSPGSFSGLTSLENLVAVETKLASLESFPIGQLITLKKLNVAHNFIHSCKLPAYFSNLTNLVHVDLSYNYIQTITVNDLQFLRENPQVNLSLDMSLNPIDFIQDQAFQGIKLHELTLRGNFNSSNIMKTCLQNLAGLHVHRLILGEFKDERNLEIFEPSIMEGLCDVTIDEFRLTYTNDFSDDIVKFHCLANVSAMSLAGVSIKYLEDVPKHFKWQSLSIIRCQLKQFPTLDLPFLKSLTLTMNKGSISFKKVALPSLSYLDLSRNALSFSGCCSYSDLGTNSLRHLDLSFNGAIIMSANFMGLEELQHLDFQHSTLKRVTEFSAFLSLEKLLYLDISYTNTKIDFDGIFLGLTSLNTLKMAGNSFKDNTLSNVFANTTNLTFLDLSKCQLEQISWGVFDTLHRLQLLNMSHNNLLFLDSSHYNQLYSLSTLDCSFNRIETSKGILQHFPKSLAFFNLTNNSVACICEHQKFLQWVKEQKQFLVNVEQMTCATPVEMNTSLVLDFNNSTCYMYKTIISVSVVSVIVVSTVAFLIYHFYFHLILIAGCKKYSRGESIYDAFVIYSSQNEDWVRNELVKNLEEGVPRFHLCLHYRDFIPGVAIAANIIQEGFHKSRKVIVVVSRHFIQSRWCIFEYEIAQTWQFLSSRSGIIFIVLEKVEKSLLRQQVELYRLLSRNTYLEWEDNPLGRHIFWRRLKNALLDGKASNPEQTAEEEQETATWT
T2 sequence (Q9JHF9 19-160 partner): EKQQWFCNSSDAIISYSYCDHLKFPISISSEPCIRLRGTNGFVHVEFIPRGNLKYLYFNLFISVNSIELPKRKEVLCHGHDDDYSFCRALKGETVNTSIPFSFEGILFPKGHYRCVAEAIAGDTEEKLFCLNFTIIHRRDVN
Procedure: as §1, §2

Cc1cc2c(N)c3c(nc2n1CCCN(C)C)CCCCCC3 [SK41, 1-(3-(dimethylamino)propyl)-2-methyl-5,6,7,8,9,10-hexahydro-1H-cycloocta[b]pyrrolo[3,2-e]pyridin-4-amine]
inhibitory activity against endosomal TLR8 (TNF-α secretion) (TLR8): strong inhibitory activity; also recorded: specific inhibitory activities
inhibitory activity against cell surface TLR4 (TNF-α secretion) (TLR4): did not exhibit a specific inhibitory activity; also recorded: no inhibitory activities

COc1ccc2c(c1)c1c(N)c3c(nc1n2CCCN(C)C)CCCC3 [SK50, 6-(3-(dimethylamino)propyl)-9-methoxy-2,3,4,6-tetrahydro-1H-indolo[2,3-b]quinolin-11-amine]
inhibitory activity against endosomal TLR8 (TNF-α secretion) (TLR8): strong inhibitory activity; also recorded: specific inhibitory activities
inhibitory activity against cell surface TLR4 (TNF-α secretion) (TLR4): did not exhibit a specific inhibitory activity; also recorded: no inhibitory activities

Cc1ccc2c(c1)c1c(N)c3c(nc1n2CCCN(C)C)CCCC3 [SK58, 6-(3-(dimethylamino)propyl)-9-methyl-2,3,4,6-tetrahydro-1H-indolo[2,3-b]quinolin-11-amine]
inhibitory activity against endosomal TLR8 (TNF-α secretion) (TLR8): strong inhibitory activity; also recorded: specific inhibitory activities
inhibitory activity against cell surface TLR4 (TNF-α secretion) (TLR4): did not exhibit a specific inhibitory activity; also recorded: no inhibitory activities

COC(=O)c1ccc2c(c1)c1c(N)c3c(nc1n2CCCN(C)C)CCCC3 [SK64, Methyl 11-amino-6-(3-(dimethylamino)propyl)-2,3,4,6-tetrahydro-1H-indolo[2,3-b]quinolin-9-carboxylate]
inhibitory activity against endosomal TLR8 (TNF-α secretion) (TLR8): strong inhibitory activity; also recorded: specific inhibitory activities
inhibitory activity against cell surface TLR4 (TNF-α secretion) (TLR4): did not exhibit a specific inhibitory activity; also recorded: no inhibitory activities
